Measured values published in patent US7259148B2, “Hepatoprotective activity of 2′-p-hydroxybenzoylmussaenosidic acid” (Council of Scientific & Industrial Research, priority 2003, dated 2007).

What was measured:
[1] = test system: GalN induced hepatic injury in rats; test: Hepatoprotective activity (in vivo) against GalN (galactosamine) induced hepatic injury in rats
From the text: On treatment of experimental animals with galactosamine (GaIN) induced hepatic damage the hepatoprotective activity observed with 033 and 033 (2) was 59.58 & 50.75, 56.62 & 43.64, 54.28 & 50.11, 57.71 & 57.57, 57.89 & 44.76 percent in serum GPT, GOT, Bilirubin, ALP, and TG respectively and 67.51 & 38.65, 66-56 & 48.10 percent in liver homogenate lipid peroxidation (LP) and GSH respectively. The same with silymarin was 57.38, 55.40, 60.00. 53.54,46.17, 69.59, 67.18 percent respectively (Table-2). Advantages of the present invention over currently used plant based hepatoprotectives: • 1. […] Silymarin is a mixture of three constituents whose relative proportion varies from batch to batch while negundoside is a pure compound. [table]

[2] = test system: CCl4 induced hepatic injury in rats; test: Hepatoprotective activity (in vivo) against CCl4 induced hepatic injury in rats
From the text: 033 and 033 (2) reduced the elevated levels of serum OPT, GOT, ALP, bilirubin, TG and liver homogenate lipid peroxidation and increased the GSH level. […] The same with silymarin was: 58.44, 51:63, 52,26,57.50,41.30,62.05 & 60.15% respectively. (Table-1). [table]

[3] = rats, GalN 300 mg/kg s.c., fed p.o. at 48 h, 24 h, 2 h before and 6 h after, 033 400 mg/kg, 033 (2) and silymarin 50 mg/kg, n=6
[4] = rats, CCl4 1 ml/kg p.o., fed p.o. at 48 h, 24 h, 2 h before and 6 h after, 033 400 mg/kg, 033 (2) and silymarin 50 mg/kg, n=6

C[C@]1(O)CC[C@@H]2C(C(=O)O)=CO[C@@H](O[C@@H]3O[C@H](CO)[C@@H](O)[C@H](O)[C@H]3OC(=O)c3ccc(O)cc3)[C@@H]21 [033 (2), 2′-p-hydroxybenzoylmussaenosidic acid]
Hepatoprotective activity in words ([1]; experimentally induced hepatic damage with galactosamine (GalN) in rats): marked hepatoprotective activity
Hepatic Glutathione (GSH, liver homogenate): mean percent hepatoprotective activity [1, 3]: 48.10%
Hepatic Lipid peroxidation (LP, liver homogenate): mean percent hepatoprotective activity [1, 3]: 38.65%
Serum ALP: mean percent hepatoprotective activity [1, 3]: 57.57%
Serum Bilirubin (mg %): mean percent hepatoprotective activity [1, 3]: 50.11%
Serum GOT (Units): mean percent hepatoprotective activity [1, 3]: 43.64%
Serum GPT (Units): mean percent hepatoprotective activity (GPT) [1, 3]: 50.75%
Serum Triglycerides (mg %): mean percent hepatoprotective activity [1, 3]: 44.76%
Hepatoprotective activity in words ([2]; experimentally induced hepatic damage in rodents, CCl4 as hepatotoxin): marked hepatoprotective activity
Hepatic Glutathione (GSH, liver homogenate): mean percent hepatoprotective activity [2, 4]: 45.56%
Hepatic Lipid peroxidation (liver homogenate): mean percent hepatoprotective activity [2, 4]: 45.85%
Serum ALP: mean percent hepatoprotective activity [2, 4]: 53.95%
Serum Bilirubin (mg %): mean percent hepatoprotective activity [2, 4]: 66.66%
Serum GOT (Units): mean percent hepatoprotective activity [2, 4]: 58.05%
Serum OPT (Units): mean percent hepatoprotective activity (reduction of elevated GPT) [2, 4]: 60.34%
Serum Triglycerides (mg %): mean percent hepatoprotective activity [2, 4]: 44.19%
